Where two headings read alike, the source gives them in different places.
Legend:
[1] = tested on: fetal rat calvaria (osteoblast) cells; conditions: in vitro; cited from earlier work
mouse calvaria = conditions: in vitro organ culture; cited from earlier work
closed femur fracture [2] = assay: Rat closed femur fracture healing, radiographs (Example 4); format: in vivo, Sprague-Dawley rats; conditions: treated rats vs untreated rats
Procedure: (§1) Sprague-Dawley rats (3 months old) underwent a standard closed femur fracture procedure as described in the art (Simon et al. Journal of Bone and Mineral Research, 17(6): 963-976 (2002); Bonnarens and Einhorn, Production of a standard closed fracture in laboratory animal bone. Journal of Orthopaedic Research, 2: 97-101 (1984)). The impending fracture was stabilized with an intramedullary stainless steel pin. Beginning 4 hours after fracture the rats were treated with vehicle (1% methylcellulose) or inhibitors of 5-LO suspended in 1% methylcellulose Inhibitor A (NDGA) was administered at 30 mg/kg and Inhibitor B (AA-861) was administered at 5 mg/kg. The day after surgery and continuing until day 21 post-fracture, experimental rats were treated with 2 doses of inhibitor (either A or B), the first dose between […] and then again with another dose 8-10 hours later. Control rats were treated similarly but with carrier only (1% methylcellulose). Three weeks after fracture the rats were anesthetized and high resolution radiographs were made of the fractured femurs using a Packard Faxitron and Kodak MinR2000 mammography film (FIGS. 8A, 8B, and 8C). Five weeks after fracture the rats were sacrificed, femurs resected, and assayed for structural mechanical properties by torsional mechanical testing (FIG. 8D).

closed femur fracture [3] = assay: Torsional mechanical testing of fractured rat femurs (Example 4); format: in vivo, Sprague-Dawley rats; conditions: 5 weeks of healing; for greater peak torque than vehicle treated rats: Inhibitor A 30 mg/kg, Inhibitor B 5 mg/kg, 2 doses daily until day 21; for mode of femur failure in torsional testing (boney union vs non-union): all femurs, vehicle 13% (2 of 15) non-unions
Procedure: as §1
Torsional mechanical testing was used to measure the peak torque sustained by each femur after 5 weeks of healing.

Saos-2 cells = conditions: cited from earlier work
[4] = tested on: primary rat calvaria (osteoblast) cultures; conditions: in vitro; cited from earlier work
G292 cells = conditions: cited from earlier work
[5] = higher concentration (0.3-1 micromolar)

For “5-hydroxyeicosatetraenoic acid [Inhibitor 5-HETE]”, the alkaline phosphatase activity [1] is listed as “reduce”, the bone nodule formation [1] is listed as “reduce” and the “BMP2 induced increase in mouse calvaria thickness” value (mouse calvaria) is listed as “prevented”.
With `CC(Cc1ccc(O)c(O)c1)C(C)Cc1ccc(O)c(O)c1` (stereo not drawn) [Inhibitor A, nordihydroguaiaretic acid] the “osteogenesis / fracture healing (FIG. 8, x-rays)” value (closed femur fracture [2]) was “accelerated”, the “greater peak torque than vehicle treated rats” value (closed femur fracture [3]) was 22% and the “mode of femur failure in torsional testing (boney union vs non-union)” value (closed femur fracture [3]) was “failed as boney unions”.
In the case of `CC1=C(C)C(=O)C(CCCCC#CCCCC#CCO)=C(C)C1=O` [Inhibitor B, 2-(12-hydroxydodeca-5,10-diynyl)-3,5,6-trimethyl-1,4-benzoquinone], the “proliferation of Saos-2 cells” value (Saos-2 cells; concentration not given) is listed as “no effect”, the “osteogenesis / fracture healing (FIG. 8, x-rays)” value (closed femur fracture [2]) is listed as “accelerated” and the “greater peak torque than vehicle treated rats” value (closed femur fracture [3]) is listed as 53%. For the same compound, the “mode of femur failure in torsional testing (boney union vs non-union)” value (closed femur fracture [3]) was “failed as boney unions”.
In the case of `CCCCC/C=C\C[C@@H](O)/C=C/C=C/C=C\[C@@H](O)CCCC(=O)O` [LTB4], the alkaline phosphatase activity [1] is listed as “reduce”, the bone nodule formation [1] is listed as “reduce” and the “proliferation of Saos-2 cells” value (Saos-2 cells; [5]) is listed as “promote proliferation”. For the same compound, the “proliferation of primary rat osteoblast cultures” value [4] was “reduces proliferation”, the “BMP2 induced increase in mouse calvaria thickness” value (mouse calvaria) was “prevented” and the “proliferation of G292 cells” value (G292 cells; [5]) was “promote proliferation”.
For `CCCCC/C=C\C\C=C/C=C/C=C/[C@@H](SC[C@H](NC(=O)CC[C@H](N)C(=O)O)C(=O)NCC(=O)O)[C@@H](O)CCCC(=O)O` [LTC4], the “proliferation of Saos-2 cells” value (Saos-2 cells; concentration not given) is listed as “no effect”, the “proliferation of primary rat osteoblast cultures” value [4] is listed as “no effect” and the “proliferation of G292 cells” value (G292 cells; concentration not given) is listed as “promote proliferation”.
In the case of `CCCCC/C=C\C\C=C/C=C/C=C/[C@@H](SC[C@H](N)C(=O)NCC(=O)O)[C@@H](O)CCCC(=O)O` [LTD4], the alkaline phosphatase activity [1] is listed as “no effect” and the bone nodule formation [1] is listed as “no effect”.

— US8980851B2, “Methods for bone treatment by modulating an arachidonic acid metabolic or signaling pathway” (Accelalox, Inc., priority 2005, dated 2015)
